Results from patent US20130225675A1, “BACTERIAL CONTROL OF WATER BASED FLUIDS DURING […] AND […] TIME IN THE SU[…]” (SCHLUMBERGER TECHNOLOGY CORPORATION, priority 2010, published 2013).

Test system: Sulfate-Reducing Bacteria
Test: Qualitative test kit specific to sulfate-reducing bacteria, produced water samples
Type: cell-based
Details: produced water from the Piceance basin, 250 ppm glutaraldehyde, "Glut+butenolide" with a further 125 ppm butenolide
Description: Produced water samples from the Piceancebasin were tested for bacterial content in a simple qualitative test kit manufactured by “Droycon Boiconcepts Inc., specific to Sulfate-Reducing Bacteria. Three kits were used, labeled “No treatment”, “Glutaraldehyde”, and “Glut+butenolide”. The latter two bottles were treated with 250 ppm glutaraldehyde.
FIG. 1 is a photograph series that compares the experimental results of testing the effectiveness of biocide compositions.

## O=CCCCC=O [Glutaraldehyde, glutaraldehyde]
After 14 days
  appearance of the test bottle (black residues characteristic of the presence of SRBs): clear and pale yellow
After 17 days
  appearance of the test bottle (re-growth of SRBs, fine black residues): begun to show re-growth of SRBs
